From patent US11660293B2, “Substituted 2-azabicyclo[3.1.1]heptane and 2-azabicyclo[3.2.1]octane derivatives as orexin receptor antagonists” (Chronos Therapeutics Limited, priority 2017, dated 2023) come the findings set out here.

Test [1] deals with T1, human Orexin type 1 receptors (Homo sapiens (Human), UniProt O43613). The experiment in a line: Intracellular calcium measurement (FLIPR), antagonism of Orexin-A at EC80 in CHO-hOX1 cells. In general terms: Calcium assays in cells follow changes in intracellular calcium, usually with a dye or a luminescent sensor.
T1 sequence (O43613 whole entry): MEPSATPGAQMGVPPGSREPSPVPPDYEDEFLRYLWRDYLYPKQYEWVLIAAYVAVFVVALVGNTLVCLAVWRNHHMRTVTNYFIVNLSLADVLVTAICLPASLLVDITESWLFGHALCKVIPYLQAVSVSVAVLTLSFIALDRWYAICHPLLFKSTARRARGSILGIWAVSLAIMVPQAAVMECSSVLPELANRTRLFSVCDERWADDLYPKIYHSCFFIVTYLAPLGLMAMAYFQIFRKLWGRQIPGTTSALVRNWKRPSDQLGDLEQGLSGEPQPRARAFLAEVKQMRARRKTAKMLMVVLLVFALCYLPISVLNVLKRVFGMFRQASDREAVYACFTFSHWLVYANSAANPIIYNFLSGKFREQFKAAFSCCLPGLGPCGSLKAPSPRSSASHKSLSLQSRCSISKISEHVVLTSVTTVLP
In test [2] the target is T2, human Orexin type 2 receptors (Homo sapiens (Human), UniProt O43614). The experiment in a line: Intracellular calcium measurement (FLIPR), antagonism of Orexin-A at EC80 in CHO-hOX2 cells.
T2 sequence (O43614 whole entry): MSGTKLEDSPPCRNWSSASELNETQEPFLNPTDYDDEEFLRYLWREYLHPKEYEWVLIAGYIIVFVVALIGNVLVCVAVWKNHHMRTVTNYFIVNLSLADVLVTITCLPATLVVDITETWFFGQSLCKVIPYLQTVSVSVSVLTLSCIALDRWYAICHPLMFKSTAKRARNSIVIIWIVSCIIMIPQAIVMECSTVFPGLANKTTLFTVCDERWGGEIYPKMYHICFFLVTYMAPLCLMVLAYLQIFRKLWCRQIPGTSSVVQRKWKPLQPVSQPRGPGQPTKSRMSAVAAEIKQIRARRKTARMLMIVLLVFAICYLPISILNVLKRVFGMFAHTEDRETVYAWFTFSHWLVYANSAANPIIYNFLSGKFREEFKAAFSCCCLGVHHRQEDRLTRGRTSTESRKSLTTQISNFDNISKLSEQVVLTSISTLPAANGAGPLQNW
In test [3] the target is T1, human Orexin type 1 receptors. The experiment in a line: Scintillation Proximity Assay (SPA) binding assay, [3H]SB-674042 displacement, CHO-hOX1 membranes. A general note: SPA uses beads or plates that emit light when radiolabelled molecules are held near them.
The target in test [4] is T2, human Orexin type 2 receptors. The experiment in a line: Scintillation Proximity Assay (SPA) binding assay, [3H]EMPA displacement, HEK-hOX2 membranes.

Each structure is given as a SMILES string.

Usually Ki stands for a dissociation constant, usually derived from enzyme kinetics or from competition with a known ligand. With `Cc1nc(C(=O)N2C(COc3ccc(F)cc3)CC3CC2C3)c(-c2ccccc2)s1` (single isomer, unassigned) [Example 3, (3S or 3R) 3-[(4-fluorophenoxy)methyl]-2-(2-methyl-5-phenyl-1,3-thiazole-4-carbonyl)-2-azabicyclo[3.1.1]heptane], the inhibition constant (Ki) was 0.00234 µM in test [1] and 0.0813 µM in test [2].
Consider `Cc1ccc(-c2nccs2)c(C(=O)N2C(COc3ccc(F)cc3)CC3CC2C3)n1` (racemic) [Example 4], for which the inhibitory constant (Ki) was 0.00575 µM in test [1] and 0.162 µM in test [2].
Taken in the same sequence, the figures for `Cc1ccc(-c2ncccn2)c(C(=O)N2C(COc3ccc(F)cc3)CC3CC2C3)c1` (single isomer, unassigned) [Example 17, (3S or 3R) 3-(4-fluorophenoxymethyl)-2-{[5-methyl-2-(pyrimidin-2-yl)phenyl]carbonyl}-2-azabicyclo[3.1.1]heptane] were 0.0151 µM and 0.355 µM.
For `Cc1ccc(-c2ncccn2)c(C(=O)N2C(COc3ccc(F)cn3)CC3CC2C3)n1` (single isomer, unassigned) [Example 22, (3S or 3R) 3-{[(5-fluoropyridin-2-yl)oxy]methyl}-2-{[6-methyl-3-(pyrimidin-2-yl)pyridin-2-yl]carbonyl}-2-azabicyclo[3.1.1]heptane], the Ki is 0.0347 µM in test [1] and 0.174 µM in test [2].
Taken in the same sequence, the figures for `Cc1ccc(-c2ncccn2)c(C(=O)N2C(CCOc3ccc(F)cc3)CC3CC2C3)c1` (single isomer, unassigned) [Example 42, (3S or 3R) 3-[2-(4-fluorophenoxy)ethyl]-2-[5-methyl-2-(pyrimidin-2-yl)benzoyl]-2-azabicyclo[3.1.1]heptane] were 0.0182 µM and 0.107 µM.
Taken in the same sequence, the figures for `Cc1ccc(-c2ncccn2)c(C(=O)N2C3CC(C3)C(C)C2COc2ccc(F)cc2)c1` (mixture of isomers) [Example 69, CIS/TRANS 3-(4-fluorophenoxymethyl)-4-methyl-2-[5-methyl-2-(pyrimidin-2-yl)benzoyl]-2-azabicyclo[3.1.1]heptane] were 0.0129 µM and 0.295 µM.
For `Cc1ccc(-c2ncccn2)c(C(=O)N2C3CC(C3)[C@@H](C)C2COc2ccc(F)cn2)c1` (some centres unmarked) [Example 74] the same measures were 0.0288 µM and 0.589 µM.
On to `Cc1ccc(-c2nccs2)c(C(=O)N2C(COc3ccc(F)cn3)CC3CC2C3)c1` (racemic) [Example 25], for which the Ki is 0.0302 µM in test [1] and 0.209 µM in test [2].
Taken in the same sequence, the figures for `Cc1ccc(-c2nccs2)c(C(=O)N2C(COc3ccc(F)cn3)CC3CC2C3)c1` (single isomer, unassigned) [Example 26, (3S or 3R) 3-{[(5-fluoropyridin-2-yl)oxy]methyl}-2-{[5-methyl-2-(1,3-thiazol-2-yl)phenyl]carbonyl}-2-azabicyclo[3.1.1]heptane] were 0.0182 µM and 0.182 µM.
Taken in the same sequence, the figures for `Cc1ccc(-c2ncccn2)c(C(=O)N2C(COc3ccc(F)cc3)CC3CC2C3)n1` (single isomer, unassigned) [Example 15, (3S or 3R) 3-(4-fluorophenoxymethyl)-2-{[6-methyl-3-(pyrimidin-2-yl)pyridin-2-yl]carbonyl}-2-azabicyclo[3.1.1]heptane] were 0.00407 µM and 0.0525 µM.
Taken in the same sequence, the figures for `Cc1ccc(-c2nccs2)c(C(=O)N2C(COc3ccc(F)cc3)CC3CC2C3)c1` (single isomer, unassigned) [Example 9, (3S or 3R) 3-(4-fluorophenoxymethyl)-2-{[5-methyl-2-(1,3-thiazol-2-yl)phenyl]carbonyl}-2-azabicyclo[3.1.1]heptane] were 0.00398 µM and 0.0794 µM.
For `Cc1ccc(-c2ncccn2)c(C(=O)N2C(COc3ccc(F)cc3)CC3CC2C3)n1` (racemic) [Example 13], the Ki in test [1] was 0.00776 µM; in test [2] it was 0.17 µM.
For the compound `Cc1nc(C(=O)N2C3CC(C3)C(C)C2COc2nccc3ccccc23)c(-c2ccccc2)s1` (mixture of isomers) [Example 83], the Ki in test [1] is 0.00347 µM; in test [2], 0.0468 µM.
For `Cc1nc(C(=O)N2C3CC(C3)[C@@H](C)[C@@H]2COc2ccc(F)cc2)c(-c2ccccc2)s1` (single isomer, unassigned) [Example 67, (3S,4S or 3R,4R) 3-(4-fluorophenoxymethyl)-4-methyl-2-(2-methyl-5-phenyl-1,3-thiazole-4-carbonyl)-2-azabicyclo[3.1.1]heptane] the same measures were 0.00138 µM and 0.562 µM.
Take `Cc1ccc(-c2nccs2)c(C(=O)N2C(COc3ccc(Cl)cc3)CC3CC2C3)c1` (centres unmarked) [Example 20]: the Ki in test [1] was 0.0229 µM.
In the case of `Cc1ccc(-n2nccn2)c(C(=O)N2C3CC(C3)[C@H](C)C2COc2ccc(F)cc2)c1` (stereo partly drawn) [Example 109, trans-3-[(4-fluorophenoxy)methyl]-4-methyl-2-[5-methyl-2-(2H-1,2,3-triazol-2-yl)benzoyl]-2-azabicyclo[3.1.1]heptane], the “OX1 pKi (SPA binding)” value in test [3] (Table 1, [3H]SB-674042 2 nM) came out at 7.51. Besides, the “OX2 pKi (SPA binding)” value in test [4] (Table 1, [3H]EMPA 2 nM) is on record as 5.89.
As to `Cc1nc(C(=O)N2C3CC(C3)[C@H](C)C2COc2ccc(F)cn2)c(-c2ncccn2)s1` (mixture of isomers) [Example 116, trans-3-{[(5-fluoropyridin-2-yl)oxy]methyl}-4-methyl-2-[2-methyl-5-(pyrimidin-2-yl)-1,3-thiazole-4-carbonyl]-2-azabicyclo[3.1.1]heptane], in test [3] (Table 2, [3H]SB-674042 2 nM), the “OX1 pKi (SPA binding)” value is 7.32. The “OX2 pKi (SPA binding)” value in test [4] (Table 2, [3H]EMPA 2 nM) was found to be 5.26.
Taken in the same sequence, the figures for `Cc1nc(C(=O)N2C3CC(C3)[C@@H](C)C2COc2ccc(F)cc2)c(-c2cnccn2)s1` (mixture of isomers) [Example 136, cis-3-[(4-fluorophenoxy)methyl]-4-methyl-2-[2-methyl-5-(pyrazin-2-yl)-1,3-thiazole-4-carbonyl]-2-azabicyclo[3.1.1]heptane] were 7.26 and 5.92.
For `Cc1ccc(-n2nccn2)c(C(=O)N2C3CC(C3)[C@@H](C)C2CNc2nc3ccc(F)cc3o2)n1` (mixture of isomers) [Example 218, cis-6-fluoro-N-({4-methyl-2-[6-methyl-3-(2H-1,2,3-triazol-2-yl)pyridine-2-carbonyl]-2-azabicyclo[3.1.1]heptan-3-yl}methyl)-1,3-benzoxazol-2-amine], the “OX1 pKi (SPA binding)” value in test [3] (Table 2, [3H]SB-674042 2 nM) is 8.33. Also, the “OX2 pKi (SPA binding)” value in test [4] (Table 2, [3H]EMPA 2 nM) is recorded as 5.47.
As to `Cc1ccc(-n2nccn2)c(C(=O)N2C3CC(C3)[C@H](C)C2COc2ccc(F)cc2)n1` (stereo partly drawn) [Example 103, trans-3-[(4-fluorophenoxy)methyl]-4-methyl-2-[6-methyl-3-(2H-1,2,3-triazol-2-yl)pyridine-2-carbonyl]-2-azabicyclo[3.1.1]heptane], the “OX1 pKi (SPA binding)” value in test [3] (Table 1, [3H]SB-674042 2 nM) was found to be 8. For the same compound, in test [4] (Table 1, [3H]EMPA 2 nM), the “OX2 pKi (SPA binding)” value was 5.6.
Turning to `Cc1nc(C(=O)N2C(COc3cnc4ccccc4n3)CC3CC2C3)c(-c2ccccc2)s1` (centres unmarked) [Example 58], the “OX1 pKi (SPA binding)” value in test [3] (Table 1, [3H]SB-674042 2 nM) stood at 7.4. Moreover, the “OX2 pKi (SPA binding)” value in test [4] (Table 1, [3H]EMPA 2 nM) came out at 6.76.
Consider `Cc1ccc(-n2nccn2)c(C(=O)N2C3CC(C3)[C@@H](C)C2CNc2cc3ccccc3cn2)n1` (stereo partly drawn) [Example 151, cis-N-({4-methyl-2-[6-methyl-3-(2H-1,2,3-triazol-2-yl)pyridine-2-carbonyl]-2-azabicyclo[3.1.1]heptan-3-yl}methyl)isoquinolin-3-amine], for which the “OX1 pKi (SPA binding)” value in test [3] (Table 2, [3H]SB-674042 2 nM) was determined as 7.59. The “OX2 pKi (SPA binding)” value in test [4] (Table 2, [3H]EMPA 2 nM) stood at 5.42.
Take `Cc1nc(C(=O)N2C(COc3cccc(F)c3)CC3CC2C3)c(-c2ccccc2)s1` (centres unmarked) [Example 44]: the “OX1 pKi (SPA binding)” value in test [3] (Table 1, [3H]SB-674042 2 nM) is 7.15. In test [4] (Table 1, [3H]EMPA 2 nM), the “OX2 pKi (SPA binding)” value stood at 6.38.
Take `C[C@@H]1C2CC(C2)N(C(=O)c2cc(C#N)ccc2-n2nccn2)C1CNc1cnc2cc(F)ccc2n1` (mixture of isomers) [Example 238, cis-3-(3-{[(6-fluoroquinoxalin-2-yl)amino]methyl}-4-methyl-2-azabicyclo[3.1.1]heptane-2-carobnyl)-4-(2H-1,2,3-triazol-2-yl)benzonitrile]: the “OX1 pKi (SPA binding)” value in test [3] (Table 2, [3H]SB-674042 2 nM) is given as 7.98. The “OX2 pKi (SPA binding)” value in test [4] (Table 2, [3H]EMPA 2 nM) stood at 6.32.
Regarding `Cc1ccc(-c2ncc(C(F)(F)F)cn2)c(C(=O)N2C3CC(C3)[C@@H](C)C2COc2ccc(F)cc2)n1` (mixture of isomers) [Example 133, cis-3-[(4-fluorophenoxy)methyl]-4-methyl-2-{6-methyl-3-[5-(trifluoromethyl)pyrimidin-2-yl]pyridine-2-carbonyl}-2-azabicyclo[3.1.1]heptane], in test [3] (Table 2, [3H]SB-674042 2 nM), the “OX1 pKi (SPA binding)” value came to 7.25. Besides, in test [4] (Table 2, [3H]EMPA 2 nM), the “OX2 pKi (SPA binding)” value came to 6.79.
Taken in the same sequence, the figures for `C[C@@H]1C2CC(C2)N(C(=O)c2cc(F)ccc2-n2nccn2)C1CNc1cnc2ccccc2n1` (single isomer, unassigned) [Example 189, N-({(3R,4S) or (3S,4R)2-[5-fluoro-2-(2H-1,2,3-triazol-2-yl)benozyl]-4-methyl-2-azabicyclo[3.1.1]heptan-3-yl}methyl)quinoxalin-2-amine] were 8.51 and 5.92.
Taken in the same sequence, the figures for `Cc1ccc(-c2ncccn2)c(C(=O)N2C3CC(C3)[C@@H](C)C2CNc2cnc(C(F)(F)F)cn2)n1` (single isomer, unassigned) [Example 250, N-{[(3R,4S) or (3S,4R)-4-methyl-2-[6-methyl-3-(pyrimidin-2-yl)pyridine-2-carbonyl]-2-azabicyclo[3.1.1]heptan-3-yl]methyl}-5-(trifluoromethyl)pyrazin-2-amine] were 7.9 and 4.85.
